27 compounds from patent US20090311217A1, “3-SUBSTITUTED-1H-INDOLE COMPOUNDS, THEIR USE AS MTOR KINASE AND PI3 KINASE INHIBITORS, AND THEIR SYNTHESES” (priority 2008, published 2009) can be followed below.

SMILES strings stand for the structures.

The target of assay [1] is PI3K-alpha (Homo sapiens, UniProt P42336). The assay can be described thus: PI3K-alpha fluorescence polarization assay. The format is biochemical. To be noted: read-out: PI3Kα Avg. IC50.
In assay [2] the target is PI3K-gamma (Homo sapiens, UniProt P48736). The assay can be described thus: PI3K-gamma fluorescence polarization assay. It counts as biochemical. To be noted: PI3Kγ Avg. IC50. The gist of the method: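 FP competition read-out: PIP3 produced displaces BODIPY-TMR-IP4 (5 nM) from GST-GRP1 PH domain (100 nM). Kinase step: 5 ng enzyme, 2.5 μM diC8-PIP2, 25 μM ATP, pH 7 HEPES/MgCl2, 1 h, 25° C; EDTA stop.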
Sequence of PI3K-gamma (P48736 whole entry, species assumed, the tested form may be a part): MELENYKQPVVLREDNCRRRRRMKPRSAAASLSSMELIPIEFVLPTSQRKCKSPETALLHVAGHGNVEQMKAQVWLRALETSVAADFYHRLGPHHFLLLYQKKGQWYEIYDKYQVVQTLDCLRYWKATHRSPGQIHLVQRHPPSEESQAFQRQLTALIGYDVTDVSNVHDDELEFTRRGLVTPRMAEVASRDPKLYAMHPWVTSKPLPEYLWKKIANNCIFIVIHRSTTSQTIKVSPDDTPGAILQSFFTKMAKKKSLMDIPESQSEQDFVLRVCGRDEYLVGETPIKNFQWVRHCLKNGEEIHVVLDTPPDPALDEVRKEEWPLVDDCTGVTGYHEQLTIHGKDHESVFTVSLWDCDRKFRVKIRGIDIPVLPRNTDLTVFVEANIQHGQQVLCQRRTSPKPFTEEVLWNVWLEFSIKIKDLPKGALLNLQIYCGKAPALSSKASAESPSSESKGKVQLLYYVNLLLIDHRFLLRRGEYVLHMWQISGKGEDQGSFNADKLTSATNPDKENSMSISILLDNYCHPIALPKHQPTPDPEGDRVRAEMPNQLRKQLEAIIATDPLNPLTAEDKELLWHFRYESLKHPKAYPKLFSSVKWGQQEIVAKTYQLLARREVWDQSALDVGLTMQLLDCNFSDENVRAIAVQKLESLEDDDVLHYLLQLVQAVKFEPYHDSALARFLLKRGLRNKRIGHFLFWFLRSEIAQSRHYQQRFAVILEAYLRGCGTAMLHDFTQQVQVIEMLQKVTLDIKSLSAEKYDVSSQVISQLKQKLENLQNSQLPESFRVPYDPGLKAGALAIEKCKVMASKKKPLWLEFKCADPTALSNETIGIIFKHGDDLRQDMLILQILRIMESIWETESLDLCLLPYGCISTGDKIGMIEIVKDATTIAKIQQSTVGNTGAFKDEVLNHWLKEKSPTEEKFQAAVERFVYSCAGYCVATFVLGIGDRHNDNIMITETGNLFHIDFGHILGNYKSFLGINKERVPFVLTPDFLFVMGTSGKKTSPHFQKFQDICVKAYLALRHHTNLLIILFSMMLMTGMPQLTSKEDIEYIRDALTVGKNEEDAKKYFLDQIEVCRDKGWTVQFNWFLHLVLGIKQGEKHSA

Sequence of PI3K-alpha (P42336 whole entry, species assumed, the tested form may be a part): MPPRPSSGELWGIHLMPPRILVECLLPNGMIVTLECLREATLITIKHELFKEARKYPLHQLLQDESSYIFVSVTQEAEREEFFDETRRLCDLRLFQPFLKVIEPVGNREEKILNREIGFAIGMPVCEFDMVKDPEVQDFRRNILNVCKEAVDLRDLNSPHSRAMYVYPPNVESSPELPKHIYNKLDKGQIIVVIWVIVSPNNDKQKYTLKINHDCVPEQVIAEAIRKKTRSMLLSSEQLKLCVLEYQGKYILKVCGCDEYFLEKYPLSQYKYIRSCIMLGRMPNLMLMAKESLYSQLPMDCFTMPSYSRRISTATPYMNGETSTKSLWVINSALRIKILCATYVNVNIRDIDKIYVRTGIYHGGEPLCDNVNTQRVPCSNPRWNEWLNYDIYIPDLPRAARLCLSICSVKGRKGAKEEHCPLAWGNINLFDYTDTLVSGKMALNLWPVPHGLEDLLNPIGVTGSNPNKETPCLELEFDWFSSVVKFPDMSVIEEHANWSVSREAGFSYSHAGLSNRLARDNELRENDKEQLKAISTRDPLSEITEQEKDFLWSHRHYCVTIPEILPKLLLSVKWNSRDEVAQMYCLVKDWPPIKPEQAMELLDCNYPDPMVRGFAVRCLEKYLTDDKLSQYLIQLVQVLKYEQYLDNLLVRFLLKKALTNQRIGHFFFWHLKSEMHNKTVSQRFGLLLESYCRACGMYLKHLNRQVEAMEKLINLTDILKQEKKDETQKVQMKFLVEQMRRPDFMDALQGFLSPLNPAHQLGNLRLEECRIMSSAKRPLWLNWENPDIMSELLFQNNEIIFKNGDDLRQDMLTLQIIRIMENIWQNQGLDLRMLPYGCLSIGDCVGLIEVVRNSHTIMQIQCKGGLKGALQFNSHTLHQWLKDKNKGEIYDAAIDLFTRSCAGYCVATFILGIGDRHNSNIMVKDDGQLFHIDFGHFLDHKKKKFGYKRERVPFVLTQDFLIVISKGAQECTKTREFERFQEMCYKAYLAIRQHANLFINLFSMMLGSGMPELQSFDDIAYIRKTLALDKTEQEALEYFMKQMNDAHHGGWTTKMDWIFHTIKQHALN
Sequence of PI3K-alpha (P27986 whole entry partner, species assumed, the tested form may be a part): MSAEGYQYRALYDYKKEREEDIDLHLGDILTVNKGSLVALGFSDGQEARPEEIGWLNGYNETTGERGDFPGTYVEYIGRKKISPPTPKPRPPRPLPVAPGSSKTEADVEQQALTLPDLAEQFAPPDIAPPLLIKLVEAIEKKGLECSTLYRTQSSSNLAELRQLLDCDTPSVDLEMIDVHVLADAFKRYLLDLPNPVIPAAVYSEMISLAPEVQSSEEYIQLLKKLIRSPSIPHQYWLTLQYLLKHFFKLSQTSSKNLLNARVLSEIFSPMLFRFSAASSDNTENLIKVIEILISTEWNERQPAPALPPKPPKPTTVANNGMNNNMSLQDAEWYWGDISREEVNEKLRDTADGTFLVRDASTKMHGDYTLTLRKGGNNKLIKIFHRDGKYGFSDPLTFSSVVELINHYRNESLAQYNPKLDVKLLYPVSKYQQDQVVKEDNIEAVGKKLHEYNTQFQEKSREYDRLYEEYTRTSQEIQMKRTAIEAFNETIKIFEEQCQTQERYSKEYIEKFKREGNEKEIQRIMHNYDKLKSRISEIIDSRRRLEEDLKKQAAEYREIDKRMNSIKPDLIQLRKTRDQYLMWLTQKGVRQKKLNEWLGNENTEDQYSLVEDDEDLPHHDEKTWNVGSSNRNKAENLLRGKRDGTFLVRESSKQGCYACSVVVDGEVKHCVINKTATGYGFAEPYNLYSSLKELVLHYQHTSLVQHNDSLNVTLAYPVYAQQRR

As a reminder, the IC50 is the point on the concentration scale where inhibition reaches its midpoint. As to `Cn1cc(/C=C2\Oc3ccc(O)cc3C2=O)c2c(-c3ccccc3)cccc21` [Compound 530, (2Z)-5-hydroxy-2-[(1-methyl-4-phenyl-1H-indol-3-yl)methylene]-1-benzofuran-3(2H)-one], the IC50 in assay [1] and in assay [2] was greater than 10000 nM each time.
Consider `COc1cc(/C=C/CN2CCN(C)CC2)c2[nH]cc(/C=C3\Oc4cc(O)ccc4C3=O)c2c1` [Compound 545, (2Z)-6-hydroxy-2-({5-methoxy-7-[(1E)-3-(4-methylpiperazin-1-yl)prop-1-en-1-yl]-1H-indol-3-yl}methylene)-1-benzofuran-3(2H)-one], for which the IC50 in assay [1] is 40.5 nM; in assay [2], 1240 nM.
For `COc1ccc2c(c1)c(/C=C1\Oc3ccc(NC(=O)NCCCN)cc3C1=O)cn2CCN1CCN(C)CC1` [Compound 566, 1-(3-aminopropyl)-3-[(2Z)-2-({5-methoxy-1-[2-(4-methylpiperazin-1-yl)ethyl]-1Hindol-3-yl}methylene)-3-oxo-2,3-dihydro-1-benzofuran-5-yl]urea], in that order: 93.5 nM and 7790 nM.
Regarding `COc1ccc2[nH]c(C)c(C=C3Oc4c(O)cccc4C3=O)c2c1` [Example 120, 7-hydroxy-2-[(5-methoxy-2-methyl-1H-indol-3-yl)methylene]-1-benzofuran-3(2H)-one], the IC50 in assay [1] amounted to 1540 nM; in assay [2] it was 10300 nM.
Regarding `COc1ccc2c(c1)c(C=C1Oc3cccc(O)c3C1=O)c(C)n2C` [Example 121, 4-hydroxy-2-[(5-methoxy-1,2-dimethyl-1H-indol-3-yl)methylene]-1-benzofuran-3(2H)-one], the IC50 in assay [1] was 317 nM; in assay [2] it was 5430 nM.
In the case of `CNC(=O)Nc1ccc2c(c1)C(=O)/C(=C/c1c(C)n(CCCn3ccnc3)c3ccc(OC)cc13)O2` [Compound 598, 1-[(2Z)-2-({1-[3-(1H-imidazol-1-yl)propyl]-5-methoxy-2-methyl-1H-indol-3-yl}methylidene)-3-oxo-2,3-dihydro-1-benzofuran-5-yl]-3-methylurea], the IC50 in assay [1] came to 30.8 nM; in assay [2], 417 nM.
For `COc1ccc2[nH]c(C)c(CC3Oc4cc(O)cc(O)c4C3=O)c2c1` (stereo not drawn) [Example 119, 4,6-dihydroxy-2-[(5-methoxy-2-methyl-1H-indol-3-yl)methyl]-1-benzofuran-3(2H)-one], in that order: 3830 nM and greater than 10000 nM.
In the case of `CNC(=O)Nc1ccc2c(c1)C(=O)/C(=C/c1c(C)n(CCCN3CCN(C)CC3)c3ccc(OC)cc13)O2` [Compound 586, 1-[(2Z)-2-({5-methoxy-2-methyl-1-[3-(4-methylpiperazin-1-yl)propyl]-1H-indol-3-yl}methylene)-3-oxo-2,3-dihydro-1-benzofuran-5-yl]-3-methylurea], the IC50 in assay [1] came to 3.5 nM; in assay [2], 1010 nM.
On to `COc1ccc2c(c1)c(/C=C1\Oc3ccc(NC(N)=O)cc3C1=O)cn2CCCN(C)C` [Compound 537, 1-[(2Z)-2-({1-[3-(dimethylamino)propyl]-5-methoxy-1H-indol-3-yl}methylene)-3-oxo-2,3-dihydro-1-benzofuran-5-yl]urea], for which the IC50 is 421 nM in assay [1] and greater than 10000 nM in assay [2].
For `COc1ccc(NC(=O)Nc2ccc3c(c2)C(=O)/C(=C/c2c[nH]c4ccc(OC)cc24)O3)cc1` [Compound 491, 1-{(2Z)-2-[(5-methoxy-1H-indol-3-yl)methylene]-3-oxo-2,3-dihydro-1-benzofuran-5-yl}-3-(4-methoxyphenyl)urea] the same measures were 465 nM and 1310 nM.
For `COc1cc(-c2cccnc2)c2[nH]cc(/C=C3\Oc4cc(O)ccc4C3=O)c2c1` [Compound 480, (2Z)-6-hydroxy-2-[(5-methoxy-7-pyridin-3-yl-1H-indol-3-yl)methylene]-1-benzofuran-3(2H)-one] the same measures were 81.5 nM and 3510 nM.
For `CNC(=O)Nc1ccc2c(c1)C(=O)/C(=C/c1c(-c3nc(C(C)C)no3)n(CCN3CCN(C)CC3)c3ccc(OC)cc13)O2` [Compound 614, 1-[(2Z)-2-({5-methoxy-2-[3-(1-methylethyl)-1,2,4-oxadiazol-5-yl]-1-[2-(4-methylpiperazin-1-yl)ethyl]-1H-indol-3-yl}methylidene)-3-oxo-2,3-dihydro-1-benzofuran-5-yl]-3-methylurea], in that order: 3.5 nM and 355 nM.
`COc1ccc2c(c1)c(/C=C1\Oc3ccc(NC(=O)NCCO)cc3C1=O)cn2CCCN(C)C` [Compound 554, 1-[(2Z)-2-({1-[3-(dimethylamino)propyl]-5-methoxy-1H-indol-3-yl}methylene)-3-oxo-2,3-dihydro-1-benzofuran-5-yl]-3-(2-hydroxyethyl)urea]: the 50% inhibitory concentration (IC50) in assay [1] amounted to 73 nM; in assay [2], 5260 nM.
For `COc1ccc2[nH]cc(/C=C3\Oc4cc(O)cc(CO)c4C3=O)c2c1` [Compound 517, (2Z)-6-hydroxy-4-(hydroxymethyl)-2-[(5-methoxy-1H-indol-3-yl)methylene]-1-benzofuran-3(2H)-one], in that order: 82.5 nM and 714 nM.
`CCNC(=O)Nc1ccc2c(c1)C(=O)/C(=C/c1cn(C)c3cccc(-c4ccccc4)c13)O2` [Compound 543, 1-ethyl-3-{(2Z)-2-[(1-methyl-4-phenyl-1H-indol-3-yl)methylidene]-3-oxo-2,3-dihydro-1-benzofuran-5-yl}urea]: the IC50 in assay [1] and in assay [2] was greater than 10000 nM each time.
With `CNC(=O)Nc1ccc2c(c1)C(=O)/C(=C/c1c[nH]c3c(/C=C/CN4CCN(C)CC4)cc(OC)cc13)O2` [Compound 594, 1-[(2Z)-2-({5-methoxy-7-[(1E)-3-(4-methylpiperazin-1-yl)prop-1-en-1-yl]-1Hindol-3-yl}methylene)-3-oxo-2,3-dihydro-1-benzofuran-5-yl]-3-methylurea], the IC50 in assay [1] was found to be 73.5 nM; in assay [2], 2200 nM.
For `CNC(=O)Nc1ccc2c(c1)C(=O)/C(=C/c1c(-c3cccnc3)n(CCN3CCN(C)CC3)c3ccc(OC)cc13)O2` [Compound 596, 1-[(2Z)-2-({5-methoxy-1-[2-(4-methylpiperazin-1-yl)ethyl]-2-pyridin-3-yl-1Hindol-3-yl}methylene)-3-oxo-2,3-dihydro-1-benzofuran-5-yl]-3-methylurea], in that order: 1.7 nM and 279 nM.
For `COC(=O)NC(=O)Nc1ccc2c(c1)C(=O)/C(=C/c1c[nH]c3ccc(OC)cc13)O2` [Compound 490, methyl ({(2Z)-2-[(5-methoxy-1H-indol-3-yl)methylene]-3-oxo-2,3-dihydro-1-benzofuran-5-yl}carbamoyl)carbamate] the same measures were 674 nM and greater than 10000 nM.
On to `Cn1cc(/C=C2\Oc3cc(O)cc(O)c3C2=O)c2c(-c3ccccc3)cccc21` [Compound 531, (2Z)-4,6-dihydroxy-2-[(1-methyl-4-phenyl-1H-indol-3-yl)methylene]-1-benzofuran-3(2H)-one], for which the IC50 was 340 nM in assay [1] and 2530 nM in assay [2].
For `CNC(=O)Nc1ccc2c(c1)C(=O)/C(=C/c1cn(C)c3c(CCCN4CCN(C)CC4)cc(OC)cc13)O2` [Compound 572, 1-[(2Z)-2-({5-methoxy-1-methyl-7-[3-(4-methylpiperazin-1-yl)propyl]-1H-indol-3-yl}methylene)-3-oxo-2,3-dihydro-1-benzofuran-5-yl]-3-methylurea], in that order: 1660 nM and 2320 nM.
On to `COc1ccc2c(c1)c(/C=C1\Oc3ccc(NC(=O)NCCN(C)C)cc3C1=O)cn2CCN1CCN(C)CC1` [Compound 574, 1-[2-(dimethylamino)ethyl]-3-[(2Z)-2-({5-methoxy-1-[2-(4-methylpiperazin-1-yl)ethyl]-1H-indol-3-yl}methylene)-3-oxo-2,3-dihydro-1-benzofuran-5-yl]urea], for which the IC50 came to 97.5 nM in assay [1] and 2990 nM in assay [2].
For `COc1ccc2[nH]cc(C=C3Oc4cc(O)cc(-c5ccccc5)c4C3=O)c2c1` [Compound 504, 6-hydroxy-2-[(5-methoxy-1H-indol-3-yl)methylene]-4-phenyl-1-benzofuran-3(2H)-one], in that order: 122 nM and 541 nM.
For `COc1cc(-c2cccnc2)c2c(c1)c(/C=C1\Oc3cc(O)ccc3C1=O)cn2CCCC#N` [Compound 502, 4-{3-[(Z)-(6-hydroxy-3-oxo-1-benzofuran-2(3H)-ylidene)methyl]-5-methoxy-7-pyridin-3-yl-1H-indol-1-yl}butanenitrile] the same measures were 592 nM and 4160 nM.
For `COc1cc(/C=C/CN2CCCCC2)c2[nH]cc(/C=C3\Oc4cc(O)ccc4C3=O)c2c1` [Compound 555, (2Z)-6-hydroxy-2-({5-methoxy-7-[(1E)-3-piperidin-1-ylprop-1-en-1-yl]-1H-indol-3-yl}methylene)-1-benzofuran-3(2H)-one], in that order: 48 nM and 1890 nM.
In the case of `COc1ccc2[nH]cc(C=C3Oc4cc(OS(=O)(=O)C(F)(F)F)ccc4C3=O)c2c1` [Compound 494, 2-[(5-methoxy-1H-indol-3-yl)methylene]-3-oxo-2,3-dihydro-1-benzofuran-6-yl trifluoromethanesulfonate], the IC50 is greater than 10000 nM in assay [1] and 9350 nM in assay [2].
Turning to `COc1cccc2c1c(/C=C1\Oc3cc(O)cc(O)c3C1=O)c(-c1ccccc1)n2C` [Compound 497, (2Z)-4,6-dihydroxy-2-[(4-methoxy-1-methyl-2-phenyl-1H-indol-3-yl)methylene]-1-benzofuran-3(2H)-one], the values for the IC50 in assay [1] and in assay [2] were 963 nM and 1210 nM, respectively.
In the case of `CNC(=O)Nc1ccc2c(c1)C(=O)/C(=C/c1c(-c3c(C)nn(C)c3C)[nH]c3ccc(OC)cc13)O2` [Compound 616, 1-[(2Z)-2-{[5-methoxy-2-(1,3,5-trimethyl-1H-pyrazol-4-yl)-1H-indol-3-yl]methylidene}-3-oxo-2,3-dihydro-1-benzofuran-5-yl]-3-methylurea], the IC50 is 0.4 nM in assay [1] and 4.8 nM in assay [2].
